From patent publication US20060069132A1, “Azolecarboxamide herbicides” (priority 2004, published 2006)

Columns and labels:
barnyardgrass [1] = assay: Test B flooded paddy test; format: in vivo, Echinochloa crus-galli; conditions: 1000 g ai/ha, scale 0 to 100 (0 no effect, 100 complete control)
Procedure, shortened: (§1)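 Formulated test chemicals went onto postemergence plants measuring 2 to 18 cm, at one to four leaves. For the paddy assay, species had reached two leaves. Scoring took place 13–15 days later by eye, relative to untreated plants, using 0 for no effect up to 100 for full control.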

corn = assay: Test B pre-/postemergence herbicide test; format: in vivo, Zea mays; conditions: for Corn plant response rating: postemergence
Procedure, shortened: (§2)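 Visual rating, 0 (no effect) to 100 (complete control), versus untreated controls after 13–15 d in greenhouse. Pre- and postemergence applications (postemergence plants 2–18 cm, 1–4 leaves); flooded paddy arm at 2-leaf stage. Compounds in non-phytotoxic solvent plus surfactant.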

wild oat = assay: Test B postemergence herbicide test; format: in vivo, Avena fatua; conditions: scale 0 (no effect) to 100 (complete control)
Procedure, shortened: (§3)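 Treated at 2-leaf (paddy) or 1–4-leaf, 2–18 cm (postemergence); greenhouse 13–15 d; visual score vs control, 0 none to 100 complete control; dash = not tested.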

[2] = test system: smallflower umbrella sedge; assay: Test C flooded paddy test; format: in vivo, Cyperus difformis
Method: (§4) At the same time, plants selected from these crop and weed species and also winter barley (Hordeum vulgare L.), blackgrass (Alopecurus myosuroides Huds.), canarygrass (Phalaris minor Retz.), chickweed (Stellaria media (L.) Vill.), downy bromegrass (Bromus tectorum L.), green foxtail (Setaria viridis (L.) Beauv.), Italian ryegrass (Lolium multiflorum Lam.), wheat (Triticum aestivum L.), wild oat (Avenafatua L.) and windgrass (Apera spica-venti (L.) Beauv.) were treated with postemergence applications of some of the test chemicals formulated in the same manner. Plants ranged in height from 2 to 18 cm (1- to 4-leaf stage) for postemergence treatments. Plant species in the flooded paddy test consisted of rice (Oryza sativa), smallflower umbrella sedge (Cyperus difformis L.), ducksalad (Heteranthera limosa (Sw.) Willd.) and barnyardgrass (Echinochloa crus-galli (L.) Beauv.) grown to the 2-leaf stage for testing. Treated plants and controls were maintained in a greenhouse for 12 to 14 days, after which time all species were compared to controls and visually evaluated. Plant response ratings, summarized in Table C, are based on a scale of 0 to 100 where 0 is no effect and 100 is complete control. A dash (-) response means no test result.

lambsquarters = assay: Test B pre-/postemergence herbicide test; format: in vivo, Chenopodium album; conditions: for Lambsquarters plant response rating: scale 0 (no effect) to 100 (complete control)
Procedure, shortened: as §2

pigweed = assay: Test B pre-/postemergence herbicide test; format: in vivo, Amaranthus retroflexus; conditions: for Pigweed plant response rating: scale 0 (no effect) to 100 (complete control)
Procedure, shortened: as §2

ducksalad [3] = assay: Test B flooded paddy test; format: in vivo, Heteranthera limosa; conditions: 1000 g ai/ha, scale 0 to 100 (0 no effect, 100 complete control)
Procedure, shortened: as §1

Surinam grass = assay: Test B pre-/postemergence herbicide test; format: in vivo, Urochloa decumbens; conditions: for Surinam Grass plant response rating: scale 0 (no effect) to 100 (complete control)
Procedure, shortened: as §2

large crabgrass = assay: Test B pre-/postemergence herbicide test; format: in vivo, Digitaria sanguinalis; conditions: for Crabgrass, Large plant response rating: postemergence
Procedure, shortened: as §2

velvetleaf = assay: Test B pre-/postemergence herbicide test; format: in vivo, Abutilon theophrasti; conditions: for Velvetleaf plant response rating: scale 0 (no effect) to 100 (complete control)
Procedure, shortened: as §2

wheat = assay: Test B postemergence herbicide test; format: in vivo, Triticum aestivum; parameters: key to Wheat plant response rating: 0 = no effect, 100 = complete control
Procedure, shortened: as §3

rice [4] = assay: Test C flooded paddy test; format: in vivo, Oryza sativa
Method: as §4

giant foxtail = assay: Test B pre-/postemergence herbicide test; format: in vivo, Setaria faberi; conditions: for Foxtail, Giant plant response rating: postemergence
Procedure, shortened: as §2

morningglory = assay: Test B pre-/postemergence herbicide test; format: in vivo, Ipomoea coccinea; conditions: for Morningglory plant response rating: scale 0 (no effect) to 100 (complete control)
Procedure, shortened: (§5)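 Plants compared with untreated controls 13–15 days post-treatment and given a visual 0–100 injury score. Applications: preemergence to seeds; postemergence at 1- to 4-leaf (2–18 cm); paddy species flooded, 2-leaf stage. Vehicle non-phytotoxic, surfactant included.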

rice [5] = assay: Test B flooded paddy test; format: in vivo, Oryza sativa; conditions: 1000 g ai/ha, scale 0 to 100 (0 no effect, 100 complete control)
Procedure, shortened: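 Read-out: visual comparison with controls, scored 0 to 100, where 100 means complete control and 0 no effect. Formulated chemicals were applied postemergence to plants 2–18 cm tall (1- to 4-leaf), or to flooded-paddy plants at the 2-leaf stage, then held 13 to 15 days under glass.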

[6] = test system: small flower umbrella sedge; assay: Test B flooded paddy test; format: in vivo, Cyperus difformis; conditions: 1000 g ai/ha, scale 0 to 100 (0 no effect, 100 complete control)
Procedure, shortened: as §1

barnyardgrass [7] = assay: Test C flooded paddy test; format: in vivo, Echinochloa crus-galli
Method: as §4

cocklebur = assay: Test B pre-/postemergence herbicide test; format: in vivo, Xanthium strumarium; conditions: for Cocklebur plant response rating: postemergence
Procedure, shortened: as §5

blackgrass = assay: Test B postemergence herbicide test; format: in vivo, Alopecurus myosuroides; conditions: postemergence
Procedure, shortened: as §1

ducksalad [8] = assay: Test C flooded paddy test; format: in vivo, Heteranthera limosa
Method: as §4

barnyardgrass [9] = assay: Test B pre-/postemergence herbicide test; format: in vivo, Echinochloa crus-galli; conditions: for Barnyardgrass plant response rating: postemergence
Procedure, shortened: as §5

[10] = 125 g ai/ha, 0 is no effect, 100 is complete control, preemergence
[11] = 125 g ai/ha, visual rating, scale 0 (no effect) to 100 (complete control)
[12] = 500 g ai/ha, scale 0 to 100, 0 is no effect, 100 is complete control
[13] = 125 g ai/ha, visual rating, postemergence
[14] = 125 g ai/ha, scale 0 to 100 (0 no effect, 100 complete control)
[15] = 250 g ai/ha, scale of 0 to 100, 0 is no effect, 100 is complete control
[16] = 500 g ai/ha, visual rating after 12 to 14 days, scale 0 to 100 (0 no effect, 100 complete control)

CCc1nn(C(C)(C)CC)nc1C(=O)Nc1cccc(C(=O)N2CC=CC2)c1 [Compound 369]
Barnyardgrass plant response rating (barnyardgrass [1]): 50
Plant response rating (0 to 100 scale), Corn (corn; [10]): 20
Corn plant response rating (corn; [11]): 10
Corn plant response rating (corn; [12]): 10
Oat, Wild plant response rating (wild oat; [13]): 20
Oat, Wild plant response rating (wild oat; Postemergence, 500 g ai/ha): 30
Sedge, Umbrella plant response rating ([2]; 62 g ai/ha, scale 0 to 100): 75
Sedge, Umbrella plant response rating [2, 14]: 75
Sedge, Umbrella plant response rating [2, 15]: 85
Plant response rating (0 to 100 scale), Lambsquarters (lambsquarters; [10]): 100
Lambsquarters plant response rating (lambsquarters; [13]): 20
Lambsquarters plant response rating (lambsquarters; Postemergence, 500 g ai/ha): 70
Plant response rating (0 to 100 scale), Pigweed (pigweed; [10]): 80
Pigweed plant response rating (pigweed; [13]): 30
Pigweed plant response rating (pigweed; Postemergence, 500 g ai/ha): 60
Ducksalad plant response rating (ducksalad [3]): 90
Plant response rating (0 to 100 scale), Surinam Grass (Surinam grass; [10]): 0
Surinam Grass plant response rating (Surinam grass; [13]): 10
Surinam Grass plant response rating (Surinam grass; Postemergence, 500 g ai/ha): 10
Plant response rating (0 to 100 scale), Crabgrass, Large (large crabgrass; [10]): 20
Crabgrass, Large plant response rating (large crabgrass; [11]): 10
Crabgrass, Large plant response rating (large crabgrass; [12]): 20
Plant response rating (0 to 100 scale), Velvetleaf (velvetleaf; [10]): 0
Velvetleaf plant response rating (velvetleaf; [13]): 10
Velvetleaf plant response rating (velvetleaf; Postemergence, 500 g ai/ha): 60
Wheat plant response rating (wheat; 125 g ai/ha, visual rating, scale 0 (no effect) to 100 (complete control), postemergence): 0
Wheat plant response rating (wheat; 500 g ai/ha, scale 0 to 100, 0 no effect, 100 complete control, preemergence): 0
Wheat plant response rating (wheat; Postemergence, 500 g ai/ha, scale 0 (no effect) to 100 (complete control)): 0
Rice plant response rating (rice [4]; 62 g ai/ha, scale 0 to 100): 55
Rice plant response rating (rice [4]; [14]): 60
Rice plant response rating (rice [4]; [15]): 60
Plant response rating, Rice (rice [4]; [16]): 65
Plant response rating (0 to 100 scale), Foxtail, Giant (giant foxtail; [10]): 20
Foxtail, Giant plant response rating (giant foxtail; [11]): 20
Foxtail, Giant plant response rating (giant foxtail; [12]): 30
Plant response rating (0 to 100 scale), Morningglory (morningglory; [10]): 0
Morningglory plant response rating (morningglory; [13]): 0
Morningglory plant response rating (morningglory; Postemergence, 500 g ai/ha): 20
Rice plant response rating (rice [5]): 60
Sedge, Umbrella plant response rating [6]: 80
Barnyardgrass plant response rating (barnyardgrass [7]; 62 g ai/ha, scale 0 to 100 (0 no effect, 100 complete control)): 10
Barnyardgrass plant response rating (barnyardgrass [7]; [14]): 45
Barnyardgrass plant response rating (barnyardgrass [7]; [15]): 50
Plant response rating, Barnyardgrass (barnyardgrass [7]; [16]): 65
Plant response rating (0 to 100 scale), Cocklebur (cocklebur; [10]): 0
Cocklebur plant response rating (cocklebur; [11]): 20
Cocklebur plant response rating (cocklebur; [12]): 70
Blackgrass plant response rating (blackgrass; [11]): 0
Blackgrass plant response rating (blackgrass; [12]): 30
Ducksalad plant response rating (ducksalad [8]; 62 g ai/ha, scale 0 to 100): 80
Ducksalad plant response rating (ducksalad [8]; [14]): 80
Ducksalad plant response rating (ducksalad [8]; [15]): 80
Plant response rating, Ducksalad (ducksalad [8]; [16]): 80
Plant response rating (0 to 100 scale), Barnyardgrass (barnyardgrass [9]; [10]): 30
Barnyardgrass plant response rating (barnyardgrass [9]; [11]): 10
Barnyardgrass plant response rating (barnyardgrass [9]; [12]): 20
